Source: US8247615B2, “Process of converting esterified xanthophylls from Capsicum to non-esterified xanthophylls in high yields and purities” (Kalamazoo Holdings, Inc., priority 2010, dated 2012)
≈ marks a conversion by molar mass, not a printed value. Entries after “also recorded” stand apart in the source; their conditions may differ.

Columns and labels:
Format in all cases: physicochemical
[1] = Solubility of zeaxanthin in solvents (saturated solution, residue weighed); conditions: organic solvent or mixture, thermodynamic from solid
Excerpt: In a procedure identical to that described in Example 6 up until almost the final methanol desolventization step, rather than desolventizing the zeaxanthin methanol slurry, it was transferred along with 1.5 parts water (by volume) to a continuous extractor containing 1 part dichloromethane. The slurry was extracted with dichloromethane for four hours at which time the dichloromethane solution in the receiver was decanted away from the crystalline zeaxanthin that had formed. The crystals thereby obtained were 95.1% pure all-trans-zeaxanthin. The yield obtained was only 12.6%, but this experiment was only intended to produce purified zeaxanthin crystals. […] These crystals were homogenized in a mortar and pestle and added to separate vials containing various solvents until a saturated solution was obtained. In order to measure the solubility of zeaxanthin in different solvents (shown in Table 7 below), a 5.0 ml portion of the saturated supernatant was filtered, desolventized, and the residues weighed.

[2] = Stability of zeaxanthin in strongly basic (pH~14) aqueous methanolic potassium hydroxide at room temperature for 15 days
Experimental: A reaction was carried out using the same reactants at the same proportions under the same conditions as reaction 19 in the table in Example 1. The procedure was identical for the first 24 hrs as described for reaction 19, but after refluxing for 24 hours, the mixture was allowed to settle for 1 hour at which time the upper hexane layer was decanted away. The remaining lower phase was washed twice by partitioning with water (30 mL for each wash). In each case the lower aqueous phase was discarded and after the second water wash, methanol (75 mL) was added to the remaining upper phase. The mixture was then distilled to remove the remaining hexanes and then refluxed for five hours. The mixture was then allowed to cool and was centrifuged and decanted to afford a supernatant and a crude precipitate. […] The purity was 17.4%. In a separate experiment, the mixture was allowed to cool after distilling away hexane (i.e. the five hour reflux described above was not carried out) and placed in a separating funnel for 15 days at which time the supernatant was removed by decanting to afford a crude precipitate. […] The supernatant and both wash solutions were analyzed for zeaxanthin content and >99% of the input zeaxanthin was accounted for, even after sitting in caustic solution for two weeks!

[3] = Stability of zeaxanthin to saponification / reflux in caustic aqueous methanolic potassium hydroxide
Experimental: In a procedure similar to that described in Example 2 after distilling away the hexane, the mixture was refluxed for a total of 40 hours and the content of zeaxanthin isomers was monitored by HPLC as a function of time. After refluxing for 40 hours the mixture was allowed to cool, then centrifuged to afford a supernatant and a crude precipitate. The crude precipitate was washed with methanol (4× by weight of crude precipitate) centrifuged and decanted to afford a wash solution and a refined precipitate. After desolventization, the powder was 59.0% pure zeaxanthin corresponding to a yield of 71%. The supernatant and the wash solution were both analyzed for zeaxanthin content and >99% of input zeaxanthin was accounted for, even after refluxing in caustic solution for 40 hours!

[4] = Stability of zeaxanthin on spray drying of the methanol slurry; conditions: spray dryer, inlet 120-160° C., outlet 60.5-87.2° C., nitrogen drying gas
Experimental: In an experiment identical to the procedure described in Example 6, the zeaxanthin/methanol slurry was desolventized using a spray dryer. […] Inlet temperatures ranged from 120° C. to 160° C., outlet temp was 60.5° C. to 87.2° C., and rotary atomizer was set at 5.5 bar. Nitrogen was used as the drying gas.

[5] = Stability of cis and trans isomers of zeaxanthin to the analytical sample preparation conditions; conditions: analytical saponification in refrigerator, between 2 and 119 hours
Experimental: […]
Using the sample preparation conditions above, duplicate samples were prepared from the same oleoresin and each were split into seven separate vials and then stored in the refrigerator. A vial from each of the duplicate samples was removed at various times and analyzed by HPLC. […] We therefore conclude that our sample preparation and analysis conditions are not changing the amounts of the two isomers and that the amounts measured are the amounts in the samples prior to sample preparation and analysis.

`CC1=C(/C=C/C(C)=C/C=C/C(C)=C/C=C/C=C(C)/C=C/C=C(C)/C=C/C2=C(C)CC(O)CC2(C)C)C(C)(C)CC(O)C1` (stereo not shown) [Zeaxanthin, zeaxanthin] gave a solubility ([1]; solvent Acetone) of 1630 µg/mL (≈ 2870 µM), a solubility ([1]; solvent DCM (dichloromethane)) of 2960 µg/mL (≈ 5200 µM) and a solubility ([1]; solvent EtOAc (ethyl acetate)) of 1070 µg/mL (≈ 1880 µM). The solubility ([1]; solvent EtOH (ethanol)) was 40 µg/mL (≈ 70.3 µM), the solubility ([1]; solvent Hexane) was 68 µg/mL (≈ 120 µM) and the solubility ([1]; solvent IPA (isopropyl alcohol)) was 81 µg/mL (≈ 142 µM). For the same compound, the solubility ([1]; solvent Methanol) was 82 µg/mL (≈ 144 µM), the solubility ([1]; solvent MtBE (methyl tert-butyl ether)) was 726 µg/mL (≈ 1280 µM) and the solubility ([1]; solvent THF (tetrahydrofuran)) was > 20400 µg/mL. For the same compound, the “input zeaxanthin accounted for” value ([2]; after sitting in caustic solution for two weeks (15 days), precipitate, supernatant and wash solutions) was > 99%, the “degradation / loss of zeaxanthin” value ([2]; strongly basic solution (pH~14), room temperature, 15 days) was “no degradation of zeaxanthin was observed; also recorded: nor was any significant loss of zeaxanthin observed; also recorded: no loss in zeaxanthin content” and the “input zeaxanthin accounted for” value ([3]; after refluxing in caustic solution for 40 hours, precipitate, supernatant and wash solution) was > 99%. The stability to degradation ([3]; reflux in very basic aqueous methanolic solution) was “stable to degradation”, the loss of zeaxanthin ([3]; saponification by the method of the present invention, Capsicum starting material) was < 1% and the degradation of zeaxanthin [4] was “No degradation of zeaxanthin was observed”. The “change in amounts of cis and trans isomers” value [5] was “no change was observed”.
